Data reported in US6472351B1, “Herbicide” (Barrier Biotech Limited, priority 1998, dated 2002).

System: ragwort
Test: Replicated field trials 1997, ragwort control 0-10 score versus 2,4-D (Example 3)
Type: in vivo, Senecio Jacobaea
Settings: for 0-10 Score, 0 = No Control; T1 + 42 / 0-10 Score, 0 = No Control; T1 + 14 / 0-10 Score, 0 = No Control; T1 + 28 / 0-10 Score, 0 = No Control; T1 + 1 / 0-10 Score, 0 = No Control; T1 + 7: l/ha 2,4-D standard; for 0-10 Score, 0 = No Control; T1 + 42: scored 02/09/97; for 0-10 Score, 0 = No Control; T1 + 28: scored 19/08/97
Method: In 1997 properly replicated field evaluations of the efficacy of the composition according to the invention as a herbicide were carried out and 3 trial sites were located where the composition was tested against the standard product, 2, 4-D applied at a dose of 3.0 l/ha to individual plants. The trials were designed as a randomised complete block but within each “plot” area, 10 ragwort plants for each growth stage (rosette & flowing stems) were tagged with numbered markers and these were treated with the appropriate compound. […] This method reduced the risk of excessive run-off if eight squirts had been applied in a single application. […] As with the larger plants in the laboratory tests, some degree of re-growth was noted on a few of the treated plants. After the last assessments had been made, some of these plants were retreated with a second application of BH 99 and the effect was compared with untreated plants after a further 4 weeks which data is presented in the results section below.
In all evaluations the composition BH 99 was used comprising:
was applied to plants using the same equipment. The ready-mixed formulated product was contained in a 5 liter polyethylene bottle to which was fitted with a Frapak CHS-5A trigger sprayer and dip tube. This equipment delivers 2.4 mls of spray for each full squeeze of the trigger and provides a very convenient method of application.
In the replicated field trials in 1997, the 2, 4-D treatments were applied using a Hardy (backpack) small plot sprayer fitted with a lance carrying a single F110-03 nozzle. Individual plants were sprayed at a forward speed of 1.6 m/s and a pressure of 2 bar to give an application volume of 200 l/ha. Dose of 2, 4-D applied by this method was 3.0 l/ha.
Replicated Field Trials, 1997: The efficacy of BH 99 was tested against ragwort at the rosette and flowering stages at Shropham and Barnham sites but only against the rosette stage at Hockham since no flowering stems were presented.

[1] = Barnham, Flower, applied T1 23/07/97
[2] = Barnham, Rosette, applied T1 23/07/97
[3] = Hockham, Rosette, applied T1 25/07/97
[4] = flowering stage, standard at 3.0 l/ha, mean of n = 2 sites, 0-10 score
[5] = rosette stage, standard at 3.0 l/ha, mean of n = 3 sites, 0-10 score

O=C(O)COc1ccc(Cl)cc1Cl [2,4-D, 2,4-D]
Time until full activity manifest (3.0 l/ha, days after application): 42 days | 0-10 Score, 0 = No Control; T1 + 42 [1]: 9.4 | 0-10 Score, 0 = No Control; T1 + 14 (Barnham, Flower, applied T1 23/07/97, scored 08/08/97): 7.3 | 0-10 Score, 0 = No Control; T1 + 28 [1]: 8.9 | 0-10 Score, 0 = No Control; T1 + 1 (Barnham, Flower, applied T1 23/07/97, scored 24/07/97): 0.3 | 0-10 Score, 0 = No Control; T1 + 7 (Barnham, Flower, applied T1 23/07/97, scored 30/07/97): 1 | 0-10 Score, 0 = No Control; T1 + 42 [2]: 9.9 | 0-10 Score, 0 = No Control; T1 + 14 (Barnham, Rosette, applied T1 23/07/97, scored 08/08/97): 4.8 | 0-10 Score, 0 = No Control; T1 + 28 [2]: 9.1 | 0-10 Score, 0 = No Control; T1 + 1 (Barnham, Rosette, applied T1 23/07/97, scored 24/07/97): 0.1 | 0-10 Score, 0 = No Control; T1 + 7 (Barnham, Rosette, applied T1 23/07/97, scored 30/07/97): 0.8 | 0-10 Score, 0 = No Control; T1 + 7 (Hockham, Rosette, applied T1 25/07/97, scored 01/08/97): 0.4 | 0-10 Score, 0 = No Control; T1 + 42 [3]: 9.8 | 0-10 Score, 0 = No Control; T1 + 14 (Hockham, Rosette, applied T1 25/07/97, scored 07/08/97): 0.8 | 0-10 Score, 0 = No Control; T1 + 28 [3]: 5.2 | 0-10 Score, 0 = No Control; T1 + 1 (Hockham, Rosette, applied T1 25/07/97, scored 26/07/97): 0.1 | Mean Score for Ragwort Control When Treated at the Flowering Stage, 1 DAT [4]: 0.3 | Mean Score for Ragwort Control When Treated at the Flowering Stage, 7 DAT [4]: 0.8 | Mean Score for Ragwort Control When Treated at the Flowering Stage, 14 DAT [4]: 4.9 | Mean Score for Ragwort Control When Treated at the Flowering Stage, 28 DAT [4]: 7.4 | Mean Score for Ragwort Control When Treated at the Flowering Stage, 42 DAT [4]: 8.4 | Mean Score for Ragwort Control When Treated at the Rossette Stage, 1 DAT [5]: 0.1 | Mean Score for Ragwort Control When Treated at the Rossette Stage, 7 DAT [5]: 0.5 | Mean Score for Ragwort Control When Treated at the Rossette Stage, 14 DAT [5]: 2.1 | Mean Score for Ragwort Control When Treated at the Rossette Stage, 28 DAT [5]: 6.9 | Mean Score for Ragwort Control When Treated at the Rossette Stage, 42 DAT [5]: 9.4
